# Source: paper PMC7244308 (Science Advances, 2020)
# Read-outs that look alike come from different tables or passages of the source.
# Assays:
# [1] = target: PFO (Clostridium perfringens, UniProt P0C2E9); test: biochemical; assay type: binding
# [2] = target: ILY (Streptococcus intermedius, UniProt Q9LCB8); test: biochemical; assay type: binding
# [3] = target: T1, SLO (Streptococcus pyogenes serotype M1, UniProt P0C0I3); test: biochemical; assay type: binding
# [4] = target: SLY D4 (Streptococcus suis, UniProt Q55996); assay type: binding
# [5] = target: SLY (Streptococcus suis, UniProt Q55996); assay type: binding
# [6] = target: Ply (Streptococcus pneumoniae, UniProt Q7ZAK5); test: biochemical; assay type: binding
# [7] = target: recombinant human I-domain (Homo sapiens, UniProt P11215); assay type: binding
# [8] = target: T1, SLO; assay type: cell-based
# [9] = target: LLO (Listeria monocytogenes serovar 1/2a, UniProt P13128); assay type: binding
# Chain of LLO (P13128 25-529 limits assumed): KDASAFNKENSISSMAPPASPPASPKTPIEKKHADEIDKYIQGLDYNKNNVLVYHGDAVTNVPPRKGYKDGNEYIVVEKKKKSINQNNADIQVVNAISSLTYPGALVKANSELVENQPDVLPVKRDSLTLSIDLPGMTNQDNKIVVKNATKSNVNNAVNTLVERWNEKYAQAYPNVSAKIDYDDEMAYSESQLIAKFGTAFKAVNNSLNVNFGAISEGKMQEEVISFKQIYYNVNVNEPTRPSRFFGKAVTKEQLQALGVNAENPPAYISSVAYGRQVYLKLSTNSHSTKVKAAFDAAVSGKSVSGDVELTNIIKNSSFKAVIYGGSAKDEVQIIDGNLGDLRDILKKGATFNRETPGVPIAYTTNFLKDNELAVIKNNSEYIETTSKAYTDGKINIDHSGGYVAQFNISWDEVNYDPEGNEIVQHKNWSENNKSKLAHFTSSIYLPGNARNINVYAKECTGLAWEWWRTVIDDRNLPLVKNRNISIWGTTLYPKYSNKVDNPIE
# Chain of Ply (Q7ZAK5 whole entry, looked up): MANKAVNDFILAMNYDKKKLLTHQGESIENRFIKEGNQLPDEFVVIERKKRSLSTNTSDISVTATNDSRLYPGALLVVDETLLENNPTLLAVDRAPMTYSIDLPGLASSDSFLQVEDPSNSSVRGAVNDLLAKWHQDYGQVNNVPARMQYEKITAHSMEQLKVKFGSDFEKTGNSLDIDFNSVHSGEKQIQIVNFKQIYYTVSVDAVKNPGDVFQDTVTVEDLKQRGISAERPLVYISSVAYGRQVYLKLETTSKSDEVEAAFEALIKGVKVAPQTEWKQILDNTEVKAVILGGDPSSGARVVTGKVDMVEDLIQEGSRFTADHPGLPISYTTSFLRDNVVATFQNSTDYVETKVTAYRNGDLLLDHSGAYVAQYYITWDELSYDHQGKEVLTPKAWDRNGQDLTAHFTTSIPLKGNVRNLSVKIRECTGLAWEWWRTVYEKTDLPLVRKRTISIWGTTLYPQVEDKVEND
# Chain of PFO (P0C2E9 29-500 limits assumed): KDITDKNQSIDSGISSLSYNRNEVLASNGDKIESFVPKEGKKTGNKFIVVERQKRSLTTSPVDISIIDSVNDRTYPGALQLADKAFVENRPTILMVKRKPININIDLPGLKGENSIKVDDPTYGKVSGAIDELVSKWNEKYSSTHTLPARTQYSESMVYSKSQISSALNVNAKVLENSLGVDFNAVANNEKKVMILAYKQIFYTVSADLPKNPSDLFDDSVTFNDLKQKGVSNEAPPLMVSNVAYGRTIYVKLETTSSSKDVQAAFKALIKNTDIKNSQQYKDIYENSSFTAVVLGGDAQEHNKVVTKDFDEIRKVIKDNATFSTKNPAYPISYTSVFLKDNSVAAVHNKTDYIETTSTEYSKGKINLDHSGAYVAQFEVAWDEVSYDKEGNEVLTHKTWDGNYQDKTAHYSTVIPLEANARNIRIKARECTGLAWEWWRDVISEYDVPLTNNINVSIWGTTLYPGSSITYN
# T1 sequence (P0C0I3 34-571 limits assumed): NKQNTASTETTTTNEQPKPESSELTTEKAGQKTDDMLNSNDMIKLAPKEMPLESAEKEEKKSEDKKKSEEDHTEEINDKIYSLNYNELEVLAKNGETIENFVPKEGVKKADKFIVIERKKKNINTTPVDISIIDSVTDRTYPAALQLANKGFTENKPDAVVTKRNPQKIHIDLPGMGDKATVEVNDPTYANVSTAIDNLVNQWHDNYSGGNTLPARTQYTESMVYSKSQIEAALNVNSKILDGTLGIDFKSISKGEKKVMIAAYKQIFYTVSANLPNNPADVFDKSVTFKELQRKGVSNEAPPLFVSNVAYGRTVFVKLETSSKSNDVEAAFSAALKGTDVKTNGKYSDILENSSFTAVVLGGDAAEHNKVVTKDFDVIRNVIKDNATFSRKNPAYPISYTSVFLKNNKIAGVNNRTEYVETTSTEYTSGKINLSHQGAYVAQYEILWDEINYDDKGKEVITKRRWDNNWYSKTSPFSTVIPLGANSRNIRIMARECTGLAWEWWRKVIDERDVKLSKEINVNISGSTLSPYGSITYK
# Chain of recombinant human I-domain (P11215 150-328): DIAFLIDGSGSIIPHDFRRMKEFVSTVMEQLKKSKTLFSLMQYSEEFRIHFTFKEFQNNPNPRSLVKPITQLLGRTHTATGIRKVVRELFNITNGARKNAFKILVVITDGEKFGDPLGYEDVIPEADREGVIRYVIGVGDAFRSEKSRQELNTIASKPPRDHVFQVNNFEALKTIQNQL
compound,measurement,setting,value
"CC(=O)N[C@H]1[C@H](O[C@H]2[C@@H](O)[C@@H](CO)O[C@@H](O[C@H]3[C@H](O)[C@@H](O)C(O)O[C@@H]3CO)[C@@H]2O)O[C@H](CO)[C@@H](O[C@@H]2O[C@H](CO)[C@H](O)[C@H](O)[C@H]2O)[C@@H]1O (mixture of isomers) [LNnT, lacto-N-neotetraose]",Kd,[1],2.8 µM
same,Kd,[2],4.9 µM
same,Kd,[3],0.00093 µM
"C[C@@H]1O[C@@H](O[C@H]2C(O)O[C@H](CO)[C@H](O)[C@@H]2O)[C@@H](O)[C@H](O)[C@@H]1O (stereo partly shown) [BGH di, blood group H antigen disaccharide]",Kd,[4],26 µM
same,Kd,[5],19 µM
same,Kd,[3],0.603 µM
O=C[C@H](O)[C@@H](O)[C@H](O[C@@H]1O[C@H](CO)[C@@H](O)[C@H](O)[C@H]1O)[C@H](O)CO [Cellobiose],Kd,[1]; KD,34 µM
CC(C)CCC[C@@H](C)[C@H]1CC[C@H]2[C@@H]3CC=C4C[C@@H](O)CC[C@]4(C)[C@H]3CC[C@]12C [Cholesterol],Kd,[1]; KD,0.296 µM
same,Kd,[6]; KD,1 µM
same,Kd,[3]; KD,0.189 µM
CC(=O)[C@H]1CC[C@H]2[C@@H]3CC=C4C[C@@H](O)CC[C@]4(C)[C@H]3CC[C@]12C [pregnenolone],Kd,[6],~0.0004 µM
same,binding in SPR drug library screen,[6],binds
same,binding in SPR drug library screen,[3],binds
"CC(=O)N[C@H]1[C@H]([C@H](O)[C@H](O)CO)O[C@@](O[C@H]2[C@@H](O)[C@@H](CO)O[C@@H](O[C@@H]([C@H](O[C@@H]3O[C@@H](C)[C@@H](O)[C@@H](O)[C@@H]3O)[C@H](C=O)NC(C)=O)[C@H](O)CO)[C@@H]2O)(C(=O)O)C[C@@H]1O [sLeX, sialyl-Lewis X]",Kd,[1]; KD,3.9 µM
same,Kd,[2]; KD,2.8 µM
same,Kd,[6]; KD,1.3 µM
same,Kd,[3]; KD,3.1 µM
"Ply: pneumolysin, CDC toxin from Streptococcus pneumoniae, recombinant His-tagged",Kd,[7],0.0223 µM
pregnenolone sulfate (sodium salt) [PS],effect on SLO hemolytic activity,[8],inhibit
same,competition with cholesterol (competitive SPR),[6],compete directly
same,competition with cholesterol (competitive SPR),[3],compete directly
same,competition with cholesterol (competitive SPR),[9],compete directly
